Results: ChEMBL document CHEMBL1201862, “PubChem BioAssay data set” (2004)
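1) Cells in 96-well plates. 2) Compound, 48 h, 5 concentrations. 3) Linear interpolation between surrounding doses. 4) Unreached endpoint = highest concentration. At the GI50, growth is halved.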 Active and inactive are the calls of the source. No stated cut-off is given here; in the data, active = GI50 up to about 1.1 µM and inactive = higher.

Key:
Assay in all cases: growth of human tumour cells (NCI), 48 h
UACC-257 = tested on: UACC-257
KM-20L2 = tested on: KM-20L2
COLO 205 = tested on: COLO 205
HOP-18 = tested on: HOP-18
HOP-62 = tested on: HOP-62
OVCAR-8 = tested on: OVCAR-8
ACHN = tested on: ACHN
NCI-H522 = tested on: NCI-H522
K562 = tested on: K562
HCT-116 = tested on: HCT-116
NCI-H460 = tested on: NCI-H460
RXF 393 = tested on: RXF 393
DMS-273 = tested on: DMS-273
SW-620 = tested on: SW-620
HT-29 = tested on: HT-29
OVCAR-3 = tested on: OVCAR-3
CCRF-CEM = tested on: CCRF-CEM
UO-31 = tested on: UO-31
LXFL 529 = tested on: LXFL 529
UACC-62 = tested on: UACC-62
DLD-1 = tested on: DLD-1
KM12 = tested on: KM12
DMS-114 = tested on: DMS-114
HCT-15 = tested on: HCT-15
SK-MEL-5 = tested on: SK-MEL-5
NCI-H23 = tested on: NCI-H23
SF-268 = tested on: SF-268
Malme-3M = tested on: Malme-3M
M19-MEL = tested on: M19-MEL
CAKI-1 = tested on: CAKI-1
A549 = tested on: A549
OVCAR-4 = tested on: OVCAR-4
A498 = tested on: A498
SNB-78 = tested on: SNB-78
786-0 = tested on: 786-0
NCI-H226 = tested on: NCI-H226
MOLT-4 = tested on: MOLT-4
LOX IMVI = tested on: LOX IMVI
SK-MEL-28 = tested on: SK-MEL-28
U-251 = tested on: U-251
SK-MEL-2 = tested on: SK-MEL-2
HL-60 = tested on: HL-60
SNB-75 = tested on: SNB-75
IGROV-1 = tested on: IGROV-1
SF-539 = tested on: SF-539
HOP-92 = tested on: HOP-92
SN12C = tested on: SN12C
SF-295 = tested on: SF-295
M14 = tested on: M14
TK-10 = tested on: TK-10
OVCAR-5 = tested on: OVCAR-5
RPMI-8226 = tested on: RPMI-8226
SK-OV-3 = tested on: SK-OV-3
SR = tested on: SR

Measured: GI50

CN1C(=O)CSC1=S [3-METHYL-RHODANINE]
> 100 µM: HCT-15
inactive: UACC-257 > 100 µM | KM-20L2 > 100 µM | COLO 205 > 100 µM | HOP-18 > 100 µM | HOP-62 > 100 µM | OVCAR-8 > 100 µM | ACHN > 100 µM | NCI-H522 > 100 µM | K562 > 100 µM | HCT-116 > 100 µM | NCI-H460 > 100 µM | RXF 393 > 100 µM | DMS-273 > 100 µM | SW-620 > 100 µM | HT-29 > 100 µM | OVCAR-3 > 100 µM | CCRF-CEM > 100 µM | UO-31 > 100 µM | LXFL 529 > 100 µM | UACC-62 > 100 µM | DLD-1 > 100 µM | KM12 > 100 µM | DMS-114 > 100 µM | SK-MEL-5 > 100 µM | NCI-H23 > 100 µM | SF-268 > 100 µM | Malme-3M > 100 µM | M19-MEL > 100 µM | CAKI-1 > 100 µM | A549 > 100 µM | OVCAR-4 > 100 µM | A498 > 100 µM | SNB-78 > 100 µM | 786-0 > 100 µM | NCI-H226 > 100 µM | MOLT-4 > 100 µM | LOX IMVI > 100 µM | SK-MEL-28 > 100 µM | U-251 > 100 µM | SK-MEL-2 > 100 µM | HL-60 > 100 µM | SNB-75 > 100 µM | IGROV-1 > 100 µM | SF-539 > 100 µM | HOP-92 > 100 µM | SN12C > 100 µM | SF-295 > 100 µM | M14 > 100 µM | TK-10 > 100 µM | OVCAR-5 > 100 µM | RPMI-8226 > 100 µM | SK-OV-3 > 100 µM | SR > 100 µM
